Assay results: the supplement of paper PMC12463676, “Small-molecule dissolution of stress granules by redox modulation benefits ALS models” (Nature Chemical Biology, 2025)

Tests used:
[1] = compound: NC(=O)CCCCC1CCSS1 [lipoamide]; test: thermal stability z-score vs DMSO; higher = more thermally stabilized by treatment; conditions: HeLa, lipoamide concentration 100 µM
Description: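 Cellular thermal proteome profiling in HeLa cells. Cells were treated with 100 µM lipoamide for 1 h, with or without 1 mM arsenate for a further 1 h, then heated to ten temperatures (37-66.3 °C), and soluble protein was quantified by TMT mass spectrometry relative to 0.1% DMSO controls. The thermal stability score (sum of log2 fold changes minus the abundance score) was transformed to a z-score; mean of n = 3 experiments.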

[2] = compound: O=[As]([O-])(O)O.[K+] [potassium arsenate]; test: as above; conditions: HeLa; arsenate concentration 1 mM
Description: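 Cellular thermal proteome profiling in HeLa cells treated with 1 mM arsenate for 1 h (DMSO pretreatment), heated to ten temperatures (37-66.3 °C). Soluble protein was quantified by TMT mass spectrometry relative to DMSO controls; the thermal stability score was transformed to a z-score; mean of n = 3 experiments.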

[3] = arsenate co-treatment: 1 mM arsenate 1 h
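Note: each temperature applied for 3 min, abundance score taken as mean log2 fold change at the two lowest temperatures, z-score obtained by mean subtraction and division by SD.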

UniProt Q70CQ2, sequence (Q70CQ2 whole entry): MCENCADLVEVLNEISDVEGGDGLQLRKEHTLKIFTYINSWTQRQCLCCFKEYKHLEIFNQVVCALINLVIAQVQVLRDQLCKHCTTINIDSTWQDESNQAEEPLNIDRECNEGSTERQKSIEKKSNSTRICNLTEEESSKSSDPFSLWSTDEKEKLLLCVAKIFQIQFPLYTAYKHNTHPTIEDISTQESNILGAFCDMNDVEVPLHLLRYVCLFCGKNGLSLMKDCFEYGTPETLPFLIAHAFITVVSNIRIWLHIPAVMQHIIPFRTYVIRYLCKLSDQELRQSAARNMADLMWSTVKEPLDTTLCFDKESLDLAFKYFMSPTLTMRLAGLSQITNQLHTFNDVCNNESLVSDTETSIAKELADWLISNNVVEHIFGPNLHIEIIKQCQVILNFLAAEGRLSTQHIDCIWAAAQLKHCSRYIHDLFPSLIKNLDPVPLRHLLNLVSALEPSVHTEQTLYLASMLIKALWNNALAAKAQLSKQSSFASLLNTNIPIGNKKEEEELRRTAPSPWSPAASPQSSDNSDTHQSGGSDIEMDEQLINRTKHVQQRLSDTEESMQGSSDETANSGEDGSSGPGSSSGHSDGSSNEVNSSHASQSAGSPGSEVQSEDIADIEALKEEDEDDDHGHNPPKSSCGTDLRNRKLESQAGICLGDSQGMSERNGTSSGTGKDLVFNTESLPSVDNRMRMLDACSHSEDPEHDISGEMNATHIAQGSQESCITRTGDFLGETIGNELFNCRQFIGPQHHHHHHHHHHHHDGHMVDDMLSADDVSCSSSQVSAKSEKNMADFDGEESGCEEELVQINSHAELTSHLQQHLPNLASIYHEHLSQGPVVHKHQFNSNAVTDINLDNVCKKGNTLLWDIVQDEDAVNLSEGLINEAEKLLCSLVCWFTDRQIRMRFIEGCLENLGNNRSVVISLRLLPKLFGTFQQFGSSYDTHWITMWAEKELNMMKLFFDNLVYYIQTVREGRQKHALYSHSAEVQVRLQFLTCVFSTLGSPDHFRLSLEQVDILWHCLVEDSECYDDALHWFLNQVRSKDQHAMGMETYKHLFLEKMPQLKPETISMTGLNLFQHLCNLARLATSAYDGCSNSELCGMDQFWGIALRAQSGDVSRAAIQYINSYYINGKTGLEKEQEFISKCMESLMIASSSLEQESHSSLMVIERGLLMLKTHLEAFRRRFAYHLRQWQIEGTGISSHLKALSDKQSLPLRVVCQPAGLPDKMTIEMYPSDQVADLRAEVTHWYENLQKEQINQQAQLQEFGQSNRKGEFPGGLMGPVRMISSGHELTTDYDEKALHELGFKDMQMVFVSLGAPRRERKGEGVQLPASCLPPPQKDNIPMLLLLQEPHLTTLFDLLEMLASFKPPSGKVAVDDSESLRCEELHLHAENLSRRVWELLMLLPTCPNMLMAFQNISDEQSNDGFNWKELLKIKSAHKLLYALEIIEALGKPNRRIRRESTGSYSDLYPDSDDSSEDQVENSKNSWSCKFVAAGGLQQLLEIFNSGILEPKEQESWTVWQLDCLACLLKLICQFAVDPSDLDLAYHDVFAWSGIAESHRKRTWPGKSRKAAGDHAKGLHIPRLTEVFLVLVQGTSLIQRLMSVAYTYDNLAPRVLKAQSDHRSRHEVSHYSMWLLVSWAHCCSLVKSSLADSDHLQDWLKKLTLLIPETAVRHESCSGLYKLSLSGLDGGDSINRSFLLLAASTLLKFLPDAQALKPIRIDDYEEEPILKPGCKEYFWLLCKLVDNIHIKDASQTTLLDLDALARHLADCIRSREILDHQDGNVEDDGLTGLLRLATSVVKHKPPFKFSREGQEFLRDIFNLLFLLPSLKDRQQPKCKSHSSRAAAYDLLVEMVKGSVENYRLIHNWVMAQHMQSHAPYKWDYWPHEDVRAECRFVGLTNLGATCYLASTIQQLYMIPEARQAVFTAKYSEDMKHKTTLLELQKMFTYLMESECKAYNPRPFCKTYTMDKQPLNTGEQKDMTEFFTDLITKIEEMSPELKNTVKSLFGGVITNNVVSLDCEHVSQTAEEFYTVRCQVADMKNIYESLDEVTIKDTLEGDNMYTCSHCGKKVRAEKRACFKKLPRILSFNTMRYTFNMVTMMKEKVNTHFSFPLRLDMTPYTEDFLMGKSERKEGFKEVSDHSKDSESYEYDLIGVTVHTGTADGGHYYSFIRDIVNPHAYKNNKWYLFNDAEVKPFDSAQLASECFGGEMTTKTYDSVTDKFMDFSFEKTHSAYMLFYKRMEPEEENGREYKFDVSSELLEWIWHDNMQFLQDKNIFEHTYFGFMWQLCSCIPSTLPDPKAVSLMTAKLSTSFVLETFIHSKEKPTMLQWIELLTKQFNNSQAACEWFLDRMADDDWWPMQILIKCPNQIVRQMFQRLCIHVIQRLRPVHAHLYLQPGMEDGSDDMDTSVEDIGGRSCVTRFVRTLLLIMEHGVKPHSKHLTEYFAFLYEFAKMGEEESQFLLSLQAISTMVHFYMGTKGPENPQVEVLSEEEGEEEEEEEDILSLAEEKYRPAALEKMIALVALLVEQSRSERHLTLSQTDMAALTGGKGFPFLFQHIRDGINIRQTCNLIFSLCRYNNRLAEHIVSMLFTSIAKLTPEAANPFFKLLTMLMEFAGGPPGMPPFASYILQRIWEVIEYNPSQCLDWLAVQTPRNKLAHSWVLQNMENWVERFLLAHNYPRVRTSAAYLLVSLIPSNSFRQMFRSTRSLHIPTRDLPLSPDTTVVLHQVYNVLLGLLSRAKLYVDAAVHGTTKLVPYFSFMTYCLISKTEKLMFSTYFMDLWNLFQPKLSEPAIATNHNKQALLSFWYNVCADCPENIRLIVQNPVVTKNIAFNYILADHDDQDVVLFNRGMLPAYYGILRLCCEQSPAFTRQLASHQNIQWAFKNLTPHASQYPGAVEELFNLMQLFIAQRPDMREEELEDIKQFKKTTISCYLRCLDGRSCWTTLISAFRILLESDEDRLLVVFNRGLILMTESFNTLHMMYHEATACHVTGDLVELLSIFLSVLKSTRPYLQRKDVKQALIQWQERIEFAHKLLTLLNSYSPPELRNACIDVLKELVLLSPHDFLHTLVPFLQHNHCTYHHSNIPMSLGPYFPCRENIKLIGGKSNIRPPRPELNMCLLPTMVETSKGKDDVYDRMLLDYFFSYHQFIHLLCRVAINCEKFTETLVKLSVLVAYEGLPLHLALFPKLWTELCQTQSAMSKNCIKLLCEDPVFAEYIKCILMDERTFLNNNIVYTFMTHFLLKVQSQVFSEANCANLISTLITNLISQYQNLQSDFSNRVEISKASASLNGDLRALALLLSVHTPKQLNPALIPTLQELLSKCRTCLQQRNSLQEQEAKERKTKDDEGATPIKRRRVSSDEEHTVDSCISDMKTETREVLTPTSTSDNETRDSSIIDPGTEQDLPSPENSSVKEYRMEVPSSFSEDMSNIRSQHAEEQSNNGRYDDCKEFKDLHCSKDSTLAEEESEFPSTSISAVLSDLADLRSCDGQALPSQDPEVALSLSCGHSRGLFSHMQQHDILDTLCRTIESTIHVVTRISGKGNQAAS
UniProt P27707, sequence (P27707 whole entry, looked up): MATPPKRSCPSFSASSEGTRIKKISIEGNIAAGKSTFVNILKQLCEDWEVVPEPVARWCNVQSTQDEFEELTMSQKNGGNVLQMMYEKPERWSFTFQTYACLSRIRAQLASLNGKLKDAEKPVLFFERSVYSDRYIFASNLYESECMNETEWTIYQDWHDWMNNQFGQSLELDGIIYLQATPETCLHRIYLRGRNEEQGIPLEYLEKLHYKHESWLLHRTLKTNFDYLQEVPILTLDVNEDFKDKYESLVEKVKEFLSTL
UniProt P49589, sequence (P49589 whole entry): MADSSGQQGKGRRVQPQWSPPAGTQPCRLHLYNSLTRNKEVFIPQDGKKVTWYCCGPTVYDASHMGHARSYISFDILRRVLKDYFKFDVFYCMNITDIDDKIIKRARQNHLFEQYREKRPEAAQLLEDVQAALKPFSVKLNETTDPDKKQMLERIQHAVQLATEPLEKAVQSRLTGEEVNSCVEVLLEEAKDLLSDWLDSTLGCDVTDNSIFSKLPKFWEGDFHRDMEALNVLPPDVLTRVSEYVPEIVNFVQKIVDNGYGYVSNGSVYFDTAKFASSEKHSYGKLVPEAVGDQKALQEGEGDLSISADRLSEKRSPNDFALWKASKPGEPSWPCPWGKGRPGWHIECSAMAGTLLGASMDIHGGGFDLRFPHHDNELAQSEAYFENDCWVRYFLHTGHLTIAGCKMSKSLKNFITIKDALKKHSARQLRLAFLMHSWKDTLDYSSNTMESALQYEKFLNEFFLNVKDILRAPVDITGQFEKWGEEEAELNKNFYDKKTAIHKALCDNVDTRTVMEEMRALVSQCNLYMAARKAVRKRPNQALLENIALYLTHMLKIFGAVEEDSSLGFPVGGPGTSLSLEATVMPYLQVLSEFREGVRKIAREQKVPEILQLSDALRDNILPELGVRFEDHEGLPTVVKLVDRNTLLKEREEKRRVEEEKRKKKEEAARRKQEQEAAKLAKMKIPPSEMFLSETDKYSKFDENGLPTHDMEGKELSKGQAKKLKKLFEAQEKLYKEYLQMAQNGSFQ
UniProt P78417, sequence (P78417 whole entry): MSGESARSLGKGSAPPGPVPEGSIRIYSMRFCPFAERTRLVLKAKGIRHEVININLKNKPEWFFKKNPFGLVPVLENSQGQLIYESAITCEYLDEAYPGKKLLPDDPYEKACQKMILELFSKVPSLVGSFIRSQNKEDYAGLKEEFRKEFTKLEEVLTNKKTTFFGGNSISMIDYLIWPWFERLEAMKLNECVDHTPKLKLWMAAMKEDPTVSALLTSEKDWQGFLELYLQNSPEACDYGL
UniProt P60903, sequence (P60903 whole entry): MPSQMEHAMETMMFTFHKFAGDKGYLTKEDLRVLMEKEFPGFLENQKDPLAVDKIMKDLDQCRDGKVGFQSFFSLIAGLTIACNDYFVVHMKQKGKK
UniProt Q9BU61, sequence (Q9BU61 whole entry): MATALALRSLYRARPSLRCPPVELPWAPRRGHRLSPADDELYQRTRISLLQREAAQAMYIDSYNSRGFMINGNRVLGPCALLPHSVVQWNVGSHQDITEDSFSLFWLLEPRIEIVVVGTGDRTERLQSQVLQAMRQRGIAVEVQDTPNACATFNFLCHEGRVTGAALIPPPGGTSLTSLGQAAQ

Target	thermal stability z-score [1, 3]	thermal stability z-score ([1]; arsenate co-treatment: none)	thermal stability z-score [2]
DYNLT3 (UniProt P51808)	0.487	-0.208	-0.596
FUBP3 (UniProt Q96I24)	0.25	0.329	0.385
KDELC1 (UniProt Q6UW63)	-2.9	-2.19	0.422
TRA2B (UniProt P62995)	2.37	-0.56	-0.649
FAM219A (UniProt Q8IW50)	-1.69	2.4	-9.1
DCK (UniProt P27707)	0.519	0.335	-5
ERBB2 (UniProt P04626)	0.166	0.0799	0.0442
CDA (UniProt P32320)	0.868	1	1.03
USP34 (UniProt Q70CQ2)	0.544	0.668	-0.384
B3GAT3 (UniProt O94766)	-0.54	-0.00376	0.0971
MRPL45 (UniProt Q9BRJ2)	-0.181	0.0671	0.214
GSTO1 (UniProt P78417)	3	2.41	0.362
LYPD3 (UniProt O95274)	-0.113	0.0676	-0.484
MPHOSPH10 (UniProt O00566)	0.544	0.827	0.849
C17ORF80 (UniProt Q9BSJ5)	-1.48	-1.08	-0.529
AARS (UniProt P49588)	-0.195	-0.297	-1.29
S100A10 (UniProt P60903)	1.65	1.54	0.372
CARS (UniProt P49589)	-0.705	-0.132	-0.416

Target	thermal stability z-score [1, 3]	thermal stability z-score ([1]; arsenate co-treatment: none)	thermal stability z-score [2]
UBE3C (UniProt Q15386)	-0.19	0.18	0.79
ARF5 (UniProt P84085)	-0.258	-0.517	-0.187
ZNF148 (UniProt Q9UQR1)	0.37	0.389	0.415
POLR1C (UniProt O15160)	0.267	0.621	-1.08
NDUFAF3 (UniProt Q9BU61)	-0.122	-0.105	-0.147
GIPC1 (UniProt O14908)	-0.301	-0.267	-0.251
LEO1 (UniProt Q8WVC0)	1.13	0.765	0.239
TUBA1C (UniProt Q9BQE3)	-0.163	0.681	-0.265
OVCA2 (UniProt Q8WZ82)	-0.0187	0.0328	-0.0892
MRPL49 (UniProt Q13405)	-0.298	0.49	-0.254
SF3A3 (UniProt Q12874)	0.351	0.639	-0.503
LIMCH1 (UniProt Q9UPQ0)	0.0623	0.151	0.542
UTP3 (UniProt Q9NQZ2)	0.145	0.194	0.203
BIRC6 (UniProt Q9NR09)	-0.51	-0.149	0.194
MAP2K3 (UniProt P46734)	-0.4	-0.138	0.235
GMPPA (UniProt Q96IJ6)	-0.54	-1.04	-0.0973
ZHX1 (UniProt Q9UKY1)	0.0297	0.122	-0.0668
